Experimental data published in patent publication US20240000872A1, “NOVEL BACTERIOPHAGE THAT LYSES ACINETOBACTER GENUS BACTERIA HAVING RESISTANCE TO ANTIBIOTICS” (priority 2020, published 2024).

System: Acinetobacter baumannii strains
Assay: Antibiotic susceptibility test (CLSI disk diffusion test method, read per CLSI 2016); note: key: ‘S’ means susceptible; ‘I’ means intermediate; ‘R’ means resistant
Type: cell-based

## CN(C)c1cc(NC(=O)CNC(C)(C)C)c(O)c2c1C[C@H]1C[C@H]3[C@H](N(C)C)C(O)=C(C(N)=O)C(=O)[C@@]3(O)C(O)=C1C2=O [Tigecycline, tigecycline]
Host strain YMC14/01/C29
  antibiotic susceptibility class: S
Host strain YMC14/01/IP122
  antibiotic susceptibility class: S
Host strain YMC14/01/L8
  antibiotic susceptibility class: S
Host strain YMC14/01/P31
  antibiotic susceptibility class: S
Host strain YMC14/01/P117
  antibiotic susceptibility class: S
Host strain YMC14/01/P224
  antibiotic susceptibility class: I
Host strain YMC14/01/P727
  antibiotic susceptibility class: R
Host strain YMC14/01/P728
  antibiotic susceptibility class: S
Host strain YMC14/01/R130
  antibiotic susceptibility class: S
Host strain YMC14/01/R160
  antibiotic susceptibility class: S
Host strain YMC14/01/R198
  antibiotic susceptibility class: S
Host strain YMC14/01/R257
  antibiotic susceptibility class: S
Host strain YMC14/01/R270
  antibiotic susceptibility class: S
Host strain YMC14/01/R324
  antibiotic susceptibility class: S
Host strain YMC14/01/R443
  antibiotic susceptibility class: S
Host strain YMC14/01/R451
  antibiotic susceptibility class: S
Host strain YMC14/01/R560
  antibiotic susceptibility class: R
Host strain YMC14/01/R617
  antibiotic susceptibility class: S
Host strain YMC14/01/R671
  antibiotic susceptibility class: S
Host strain YMC14/01/R732
  antibiotic susceptibility class: R
Host strain YMC14/01/R767
  antibiotic susceptibility class: S
Host strain YMC14/01/R904
  antibiotic susceptibility class: S
Host strain YMC14/01/R905
  antibiotic susceptibility class: S
Host strain YMC14/01/R921
  antibiotic susceptibility class: S
Host strain YMC14/01/R941
  antibiotic susceptibility class: R
Host strain YMC14/01/R958
  antibiotic susceptibility class: R
Host strain YMC14/01/R1006
  antibiotic susceptibility class: S
Host strain YMC14/01/R1199
  antibiotic susceptibility class: S
Host strain YMC14/01/R1659
  antibiotic susceptibility class: S
Host strain YMC14/01/R1722
  antibiotic susceptibility class: S
Host strain YMC14/01/R1752
  antibiotic susceptibility class: S
Host strain YMC14/01/R2429
  antibiotic susceptibility class: S
Host strain YMC14/01/R2572
  antibiotic susceptibility class: I
Host strain YMC14/01/R2855
  antibiotic susceptibility class: S
Host strain YMC14/01/R2945
  antibiotic susceptibility class: S
Host strain YMC14/01/R3007
  antibiotic susceptibility class: S
Host strain YMC14/01/R3129
  antibiotic susceptibility class: I
Host strain YMC14/01/R3317
  antibiotic susceptibility class: S
Host strain YMC14/01/R3474
  antibiotic susceptibility class: S
Host strain YMC14/01/R3574
  antibiotic susceptibility class: S
Host strain YMC14/01/U313
  antibiotic susceptibility class: R
Host strain YMC14/01/U318
  antibiotic susceptibility class: S
Host strain YMC14/02/L18
  antibiotic susceptibility class: S
Host strain YMC14/02/P47
  antibiotic susceptibility class: I
Host strain YMC14/02/R1860
  antibiotic susceptibility class: I
Host strain YMC14/02/R2417
  antibiotic susceptibility class: S
Host strain YMC14/02/R2599
  antibiotic susceptibility class: S
Host strain YMC14/02/R2668
  antibiotic susceptibility class: R
Host strain YMC14/02/R2758
  antibiotic susceptibility class: R
Host strain YMC14/02/R2781
  antibiotic susceptibility class: S
Host strain YMC14/02/R3106
  antibiotic susceptibility class: S
Host strain YMC14/02/R3419
  antibiotic susceptibility class: R
Host strain YMC14/02/U1607
  antibiotic susceptibility class: S
Host strain YMC14/03/L9
  antibiotic susceptibility class: S
Host strain YMC14/03/P471
  antibiotic susceptibility class: S
Host strain YMC14/03/R122
  antibiotic susceptibility class: R
Host strain YMC14/03/R217
  antibiotic susceptibility class: S
Host strain YMC14/03/R380
  antibiotic susceptibility class: R
Host strain YMC14/03/R618
  antibiotic susceptibility class: S
Host strain YMC14/03/R2144
  antibiotic susceptibility class: S
Host strain YMC14/03/U4616
  antibiotic susceptibility class: S
Host strain YMC14/04/R1078
  antibiotic susceptibility class: S
Host strain YMC14/04/R1080
  antibiotic susceptibility class: S
Host strain YMC14/06/R2359
  antibiotic susceptibility S/I/R: S
  susceptibility category (S/I/R): S
Host strain YMC14/08/R1169
  antibiotic susceptibility S/I/R: R
  susceptibility category (S/I/R): R
Host strain YMC14/08/T90
  antibiotic susceptibility S/I/R: S
  susceptibility category (S/I/R): S
Host strain YMC15/02/R436
  susceptibility category (S/I/R): I
Host strain YMC15/02/T28
  antibiotic susceptibility S/I/R: S
  susceptibility category (S/I/R): S
Host strain YMC15/03/R1604
  antibiotic susceptibility S/I/R: S
  susceptibility category (S/I/R): S
Host strain YMC15/09/R1869
  susceptibility category (S/I/R): I
Host strain YMC16/01/P11
  antibiotic susceptibility S/I/R: S
  susceptibility category (S/I/R): S
Host strain YMC16/01/R123
  antibiotic susceptibility S/I/R: S
  susceptibility category (S/I/R): S
Host strain YMC16/01/R198
  antibiotic susceptibility S/I/R: S
  susceptibility category (S/I/R): S
Host strain YMC16/01/R353
  antibiotic susceptibility S/I/R: S
  susceptibility category (S/I/R): S
Host strain YMC16/01/R380
  antibiotic susceptibility S/I/R: S
  susceptibility category (S/I/R): S
Host strain YMC16/01/R397
  antibiotic susceptibility S/I/R: S
  susceptibility category (S/I/R): S
Host strain YMC16/01/R405
  antibiotic susceptibility S/I/R: R
  susceptibility category (S/I/R): R
Host strain YMC16/03/R4461
  susceptibility category (S/I/R): I
Host strain YMC16/05/R2210
  antibiotic susceptibility S/I/R: S
  susceptibility category (S/I/R): S
Host strain YMC16/07/R2512
  antibiotic susceptibility S/I/R: S
  susceptibility category (S/I/R): S
Host strain YMC16/09/R2471
  antibiotic susceptibility S/I/R: S
  susceptibility category (S/I/R): S
Host strain YMC16/10/R2537
  antibiotic susceptibility S/I/R: S
  susceptibility category (S/I/R): S
Host strain YMC16/12/B11422
  antibiotic susceptibility S/I/R: S
  susceptibility category (S/I/R): S
Host strain YMC16/12/B11449
  antibiotic susceptibility S/I/R: S
  susceptibility category (S/I/R): S
Host strain YMC16/12/B13325
  antibiotic susceptibility S/I/R: S
  susceptibility category (S/I/R): S
Host strain YMC16/12/P503
  antibiotic susceptibility S/I/R: S
  susceptibility category (S/I/R): S
Host strain YMC16/12/R4637
  susceptibility category (S/I/R): I
Host strain YMC17/01/B8053
  antibiotic susceptibility S/I/R: R
  susceptibility category (S/I/R): R
Host strain YMC17/01/B10087
  antibiotic susceptibility S/I/R: S
  susceptibility category (S/I/R): S
Host strain YMC17/01/B12075
  antibiotic susceptibility S/I/R: S
  susceptibility category (S/I/R): S
Host strain YMC17/01/B13454
  antibiotic susceptibility S/I/R: S
  susceptibility category (S/I/R): S
Host strain YMC17/01/P518
  antibiotic susceptibility S/I/R: S
  susceptibility category (S/I/R): S
Host strain YMC17/01/R2812
  susceptibility category (S/I/R): I
Host strain YMC17/02/B14
  antibiotic susceptibility S/I/R: S
  susceptibility category (S/I/R): S
Host strain YMC17/02/B87
  antibiotic susceptibility S/I/R: S
  susceptibility category (S/I/R): S
Host strain YMC17/02/B721
  antibiotic susceptibility S/I/R: S
  susceptibility category (S/I/R): S
Host strain YMC17/02/B4039
  antibiotic susceptibility S/I/R: S
  susceptibility category (S/I/R): S
Host strain YMC17/02/B4520
  antibiotic susceptibility S/I/R: S
  susceptibility category (S/I/R): S
Host strain YMC17/02/B4864
  antibiotic susceptibility S/I/R: S
  susceptibility category (S/I/R): S
Host strain YMC17/02/B8414
  antibiotic susceptibility S/I/R: R
  susceptibility category (S/I/R): R
Host strain YMC17/02/P523
  antibiotic susceptibility S/I/R: S
  susceptibility category (S/I/R): S
Host strain YMC17/02/R541
  susceptibility category (S/I/R): I
Host strain YMC17/02/R2392
  antibiotic susceptibility S/I/R: S
  susceptibility category (S/I/R): S
Host strain YMC17/03/B4730
  antibiotic susceptibility S/I/R: R
  susceptibility category (S/I/R): R
Host strain YMC17/03/B5000
  antibiotic susceptibility S/I/R: S
  susceptibility category (S/I/R): S
Host strain YMC17/03/P971
  antibiotic susceptibility S/I/R: R
  susceptibility category (S/I/R): R
Host strain YMC17/03/R348
  antibiotic susceptibility S/I/R: S
  susceptibility category (S/I/R): S
Host strain YMC17/03/R585
  susceptibility category (S/I/R): I
Host strain YMC17/03/R1888
  antibiotic susceptibility S/I/R: R
  susceptibility category (S/I/R): R
Host strain YMC17/03/R3279
  antibiotic susceptibility S/I/R: S
  susceptibility category (S/I/R): S
Host strain YMC17/03/R4077
  antibiotic susceptibility S/I/R: R
  susceptibility category (S/I/R): R
Host strain YMC17/03/R4607
  antibiotic susceptibility S/I/R: S
  susceptibility category (S/I/R): S
Host strain YMC17/04/R488
  antibiotic susceptibility S/I/R: S
  susceptibility category (S/I/R): S
Host strain YMC17/04/R640
  antibiotic susceptibility S/I/R: R
  susceptibility category (S/I/R): R
Host strain YMC/17/05/R1095
  susceptibility category (S/I/R): I
